Test results reported in ChEMBL document CHEMBL3044795, “Synthesis and biological evaluation of novel benzoquinones as potential antimicrobial agents” (2013).
In brackets after ≈: the same amount, converted by molar mass.

Tests used:
Format in all cases: functional
Escherichia coli [1] = assay: Antibacterial activity against Escherichia coli ATCC 11775 assessed as growth inhibition after 24 hr; conditions: ATCC 11775, 24 h
Candida albicans [2] = assay: Antifungal activity against Candida albicans DSM 70014 assessed as diamater of growth inhibition zone after 48 hr by agar cup diffusion method
Bacillus subtilis [3] = assay: Antibacterial activity against Bacillus subtilis ATCC 6633 assessed as growth inhibition after 24 hr by two fold serial dilution method; conditions: ATCC 6633, 24 h
Bacillus subtilis [4] = assay: Antibacterial activity against Bacillus subtilis ATCC 6633 assessed as growth inhibition after 24 hr; conditions: ATCC 6633, 24 h
Candida albicans [5] = assay: Antifungal activity against Candida albicans DSM 70014 assessed as growth inhibition after 48 hr by two-fold serial dilution method; conditions: DSM 70014, 48 h
Escherichia coli [6] = assay: Antibacterial activity against Escherichia coli ATCC 11775 assessed as growth inhibition after 24 hr by two-fold serial dilution method; conditions: ATCC 11775, 24 h
Pseudomonas aeruginosa [7] = assay: Antibacterial activity against Pseudomonas aeruginosa ATCC 10145 assessed as diamater of growth inhibition zone after 24 hr by agar cup diffusion method
Staphylococcus aureus [8] = assay: Antibacterial activity against Staphylococcus aureus DSM 1104 assessed as diamater of growth inhibition zone after 24 hr by agar cup diffusion method
Escherichia coli [9] = assay: Antibacterial activity against Escherichia coli ATCC 11775 assessed as diamater of growth inhibition zone after 24 hr by agar cup diffusion method
Pseudomonas aeruginosa [10] = assay: Antibacterial activity against Pseudomonas aeruginosa ATCC 10145 assessed as growth inhibition after 24 hr; conditions: ATCC 10145, 24 h
Pseudomonas aeruginosa [11] = assay: Ratio of Ampicillin MIC to compound MIC for Pseudomonas aeruginosa ATCC 10145
Escherichia coli [12] = assay: Ratio of compound MIC to Ampicillin MIC for Escherichia coli ATCC 11775
Pseudomonas aeruginosa [13] = assay: Antibacterial activity against Pseudomonas aeruginosa ATCC 10145 assessed as growth inhibition after 24 hr by two-fold serial dilution method; conditions: ATCC 10145, 24 h
Staphylococcus aureus [14] = assay: Antibacterial activity against Staphylococcus aureus DSM 1104 assessed as growth inhibition after 24 hr by two fold serial dilution method; conditions: DSM 1104, 24 h
Bacillus subtilis [15] = assay: Antibacterial activity against Bacillus subtilis ATCC 6633 assessed as diamater of growth inhibition zone after 24 hr by agar cup diffusion method
Candida albicans [16] = assay: Antifungal activity against Candida albicans DSM 70014 assessed as growth inhibition after 48 hr; conditions: DSM 70014, 48 h
Staphylococcus aureus [17] = assay: Antibacterial activity against Staphylococcus aureus DSM 1104 assessed as growth inhibition after 24 hr; conditions: DSM 1104, 24 h

| Structure (SMILES) | MIC (Bacillus subtilis [3]) [µg/mL] | MIC (Candida albicans [5]) [µg/mL] | MIC (Escherichia coli [6]) [µg/mL] | MIC (Pseudomonas aeruginosa [13]) [µg/mL] | MIC (Staphylococcus aureus [14]) [µg/mL] | MBC (Escherichia coli [1]) [µg/mL] | diameter of the inhibition zone (DIZ) (Candida albicans [2]) [mm] | MBC (Bacillus subtilis [4]) [µg/mL] | diameter of the inhibition zone (DIZ) (Pseudomonas aeruginosa [7]) [mm] | diameter of the inhibition zone (DIZ) (Staphylococcus aureus [8]) [mm] | diameter of the inhibition zone (DIZ) (Escherichia coli [9]) [mm] | MBC (Pseudomonas aeruginosa [10]) [µg/mL] | Ratio (Pseudomonas aeruginosa [11]) | Ratio (Escherichia coli [12]) | diameter of the inhibition zone (DIZ) (Bacillus subtilis [15]) [mm] | MFC (Candida albicans [16]) [µg/mL] | MBC (Staphylococcus aureus [17]) [µg/mL] |
| --- | --- | --- | --- | --- | --- | --- | --- | --- | --- | --- | --- | --- | --- | --- | --- | --- | --- |
| COc1ccc(/C=N/N=c2\scc(C3=CC(=O)C=CC3=O)n2-c2ccc(C)cc2)cc1 | 50 (≈ 116 µM) | 50 (≈ 116 µM) | 25 (≈ 58.2 µM) | 12.5 (≈ 29.1 µM) | 50 (≈ 116 µM) | 50 (≈ 116 µM) | 14 | 50 (≈ 116 µM) | 15 | 16 | 16 | 25 (≈ 58.2 µM) | 4 | 2 | 14 | 50 (≈ 116 µM) | 50 (≈ 116 µM) |
| COc1ccc(OC)c(/C=N/N=c2\scc(-c3cc(O)ccc3O)n2-c2ccccc2)c1 | 12.5 (≈ 27.9 µM) | 25 (≈ 55.9 µM) | 12.5 (≈ 27.9 µM) | 12.5 (≈ 27.9 µM) | 50 (≈ 112 µM) | 25 (≈ 55.9 µM) | 14 | 25 (≈ 55.9 µM) | 16 | 16 | 18 | 25 (≈ 55.9 µM) |  |  | 15 | 50 (≈ 112 µM) | 50 (≈ 112 µM) |
| COc1cc(/C=N/N=c2\scc(-c3cc(O)ccc3O)n2-c2ccccc2)ccc1O | 50 (≈ 115 µM) | 12.5 (≈ 28.8 µM) | 12.5 (≈ 28.8 µM) | 50 (≈ 115 µM) | 12.5 (≈ 28.8 µM) | 25 (≈ 57.7 µM) | 15 | 50 (≈ 115 µM) | 15 | 15 | 14 | 50 (≈ 115 µM) |  |  | 16 | 25 (≈ 57.7 µM) | 25 (≈ 57.7 µM) |
| COc1ccc(/C=N/N=c2\scc(-c3cc(O)ccc3O)n2-c2ccccc2)cc1O | 12.5 (≈ 28.8 µM) | 100 (≈ 231 µM) | 50 (≈ 115 µM) | 12.5 (≈ 28.8 µM) | 100 (≈ 231 µM) | 50 (≈ 115 µM) | 14 | 25 (≈ 57.7 µM) | 12 | 16 | 24 | 25 (≈ 57.7 µM) | 4 |  | 15 | 100 (≈ 231 µM) | 100 (≈ 231 µM) |
| COc1ccc(/C=N/N=c2\scc(-c3cc(O)ccc3O)n2-c2ccc(C)cc2)cc1O | 25 (≈ 55.9 µM) | 12.5 (≈ 27.9 µM) | 25 (≈ 55.9 µM) | 25 (≈ 55.9 µM) | 25 (≈ 55.9 µM) | 50 (≈ 112 µM) | 14 | 50 (≈ 112 µM) | 13 | 16 | 14 | 50 (≈ 112 µM) | 2 |  | 14 | 25 (≈ 55.9 µM) | 50 (≈ 112 µM) |

Second part, led by results:

| MIC (Bacillus subtilis [3]) [µg/mL] | MIC (Candida albicans [5]) [µg/mL] | MIC (Escherichia coli [6]) [µg/mL] | MIC (Pseudomonas aeruginosa [13]) [µg/mL] | MIC (Staphylococcus aureus [14]) [µg/mL] | Structure (SMILES) | MBC (Escherichia coli [1]) [µg/mL] | diameter of the inhibition zone (DIZ) (Candida albicans [2]) [mm] | MBC (Bacillus subtilis [4]) [µg/mL] | diameter of the inhibition zone (DIZ) (Pseudomonas aeruginosa [7]) [mm] | diameter of the inhibition zone (DIZ) (Staphylococcus aureus [8]) [mm] | diameter of the inhibition zone (DIZ) (Escherichia coli [9]) [mm] | MBC (Pseudomonas aeruginosa [10]) [µg/mL] | Ratio (Pseudomonas aeruginosa [11]) | Ratio (Escherichia coli [12]) | diameter of the inhibition zone (DIZ) (Bacillus subtilis [15]) [mm] | MFC (Candida albicans [16]) [µg/mL] | MBC (Staphylococcus aureus [17]) [µg/mL] |
| --- | --- | --- | --- | --- | --- | --- | --- | --- | --- | --- | --- | --- | --- | --- | --- | --- | --- |
| 50 (≈ 120 µM) | 50 (≈ 120 µM) | 50 (≈ 120 µM) | 50 (≈ 120 µM) | 50 (≈ 120 µM) | COc1ccc(/C=N/N=c2\scc(-c3cc(O)ccc3O)n2-c2ccccc2)cc1 | 50 (≈ 120 µM) | 12 | 50 (≈ 120 µM) | 14 | 14 | 14 | 50 (≈ 120 µM) |  |  | 15 | 50 (≈ 120 µM) | 50 (≈ 120 µM) |
| 50 (≈ 116 µM) | 100 (≈ 232 µM) | 12.5 (≈ 29 µM) | 50 (≈ 116 µM) | 50 (≈ 116 µM) | COc1ccc(/C=N/N=c2\scc(-c3cc(O)ccc3O)n2-c2ccc(C)cc2)cc1 | 25 (≈ 57.9 µM) | 15 | 50 (≈ 116 µM) | 16 | 15 | 15 | 50 (≈ 116 µM) |  |  | 13 | 100 (≈ 232 µM) | 50 (≈ 116 µM) |
| 12.5 (≈ 27.1 µM) | 50 (≈ 108 µM) | 25 (≈ 54.2 µM) | 25 (≈ 54.2 µM) | 12.5 (≈ 27.1 µM) | COc1ccc(OC)c(/C=N/N=c2\scc(-c3cc(O)ccc3O)n2-c2ccc(C)cc2)c1 | 50 (≈ 108 µM) | 14 | 25 (≈ 54.2 µM) | 14 | 14 | 17 | 50 (≈ 108 µM) | 2 |  | 17 | 50 (≈ 108 µM) | 25 (≈ 54.2 µM) |
